The values below come from ChEMBL document CHEMBL5465560, “Selectivity Literature for EUbOPEN Chemogenomic Library” (2024).

For experiment [1], the target named is Receptor-interacting serine/threonine-protein kinase 2 (Homo sapiens, UniProt O43353). Conditions: at 10 µM.
Experiment [2] deals with Ribosomal protein S6 kinase alpha-3 (Homo sapiens, UniProt P51812). Put plainly: Selectivity interaction (KinomeScan (DiscoverX)) EUB0001049a RPS6KA3. Conditions: at 1 µM.
The target in experiment [3] is T1, Inhibitor of nuclear factor kappa-B kinase subunit beta (Homo sapiens) (UniProt O14920).
T1 sequence (whole entry): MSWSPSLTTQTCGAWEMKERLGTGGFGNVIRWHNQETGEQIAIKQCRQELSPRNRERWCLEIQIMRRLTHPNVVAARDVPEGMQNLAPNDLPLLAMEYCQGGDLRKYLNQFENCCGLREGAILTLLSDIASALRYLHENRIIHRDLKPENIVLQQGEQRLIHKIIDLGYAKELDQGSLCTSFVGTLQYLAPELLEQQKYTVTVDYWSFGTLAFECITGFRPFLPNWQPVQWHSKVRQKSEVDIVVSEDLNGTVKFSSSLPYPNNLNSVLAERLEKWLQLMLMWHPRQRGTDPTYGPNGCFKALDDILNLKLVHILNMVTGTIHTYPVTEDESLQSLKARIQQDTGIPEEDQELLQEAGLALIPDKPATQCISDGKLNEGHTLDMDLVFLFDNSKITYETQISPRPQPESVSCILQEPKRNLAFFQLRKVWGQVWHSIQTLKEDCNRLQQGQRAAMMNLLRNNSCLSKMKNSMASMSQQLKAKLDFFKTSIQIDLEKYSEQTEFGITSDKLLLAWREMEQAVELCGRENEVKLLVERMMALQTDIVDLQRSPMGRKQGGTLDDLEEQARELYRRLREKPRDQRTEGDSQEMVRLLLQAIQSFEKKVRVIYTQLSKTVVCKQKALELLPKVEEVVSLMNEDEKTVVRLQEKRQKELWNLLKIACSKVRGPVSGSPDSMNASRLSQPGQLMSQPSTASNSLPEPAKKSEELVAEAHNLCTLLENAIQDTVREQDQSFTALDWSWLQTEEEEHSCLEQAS
Put plainly: Selectivity interaction (ActivX KiNativ screen (kinase selectivity in THP-1 cell lysates)) EUB0000639a IKBKB. It counts as subcellular. Conditions: lysate, at 1 µM.

Experiment [4] concerns the target T2, Serine/threonine-protein kinase D2 (Homo sapiens) (UniProt Q9BZL6).
T2 sequence (whole entry): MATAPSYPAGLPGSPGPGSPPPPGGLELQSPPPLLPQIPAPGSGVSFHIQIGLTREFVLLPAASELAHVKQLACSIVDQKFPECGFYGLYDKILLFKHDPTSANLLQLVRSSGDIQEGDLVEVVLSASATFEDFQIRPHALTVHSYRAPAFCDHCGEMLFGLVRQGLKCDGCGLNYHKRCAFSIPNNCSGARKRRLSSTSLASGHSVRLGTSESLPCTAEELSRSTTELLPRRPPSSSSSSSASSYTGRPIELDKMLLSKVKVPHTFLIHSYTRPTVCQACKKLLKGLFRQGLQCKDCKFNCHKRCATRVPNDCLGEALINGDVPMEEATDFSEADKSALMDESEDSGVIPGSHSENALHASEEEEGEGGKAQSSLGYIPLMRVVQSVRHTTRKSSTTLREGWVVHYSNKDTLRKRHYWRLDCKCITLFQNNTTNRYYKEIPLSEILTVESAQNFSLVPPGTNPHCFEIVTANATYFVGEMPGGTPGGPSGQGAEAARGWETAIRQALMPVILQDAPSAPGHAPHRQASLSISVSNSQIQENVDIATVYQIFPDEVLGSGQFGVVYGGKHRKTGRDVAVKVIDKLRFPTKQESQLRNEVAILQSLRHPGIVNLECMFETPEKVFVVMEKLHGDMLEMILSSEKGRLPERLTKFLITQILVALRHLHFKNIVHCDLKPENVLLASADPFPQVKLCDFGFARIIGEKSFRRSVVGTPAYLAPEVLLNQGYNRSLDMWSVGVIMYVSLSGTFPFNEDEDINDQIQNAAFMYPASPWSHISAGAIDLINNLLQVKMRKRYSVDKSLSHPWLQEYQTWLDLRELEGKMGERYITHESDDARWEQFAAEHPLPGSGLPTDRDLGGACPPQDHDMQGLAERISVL
Put plainly: Selectivity interaction (Kinase panel (Invitrogen)) EUB0000639a PRKD2. The following applies: at 200 nM.

Experiment [5] concerns the target T3, Interleukin-1 receptor-associated kinase 3 (Homo sapiens) (UniProt Q9Y616).
T3 sequence (whole entry): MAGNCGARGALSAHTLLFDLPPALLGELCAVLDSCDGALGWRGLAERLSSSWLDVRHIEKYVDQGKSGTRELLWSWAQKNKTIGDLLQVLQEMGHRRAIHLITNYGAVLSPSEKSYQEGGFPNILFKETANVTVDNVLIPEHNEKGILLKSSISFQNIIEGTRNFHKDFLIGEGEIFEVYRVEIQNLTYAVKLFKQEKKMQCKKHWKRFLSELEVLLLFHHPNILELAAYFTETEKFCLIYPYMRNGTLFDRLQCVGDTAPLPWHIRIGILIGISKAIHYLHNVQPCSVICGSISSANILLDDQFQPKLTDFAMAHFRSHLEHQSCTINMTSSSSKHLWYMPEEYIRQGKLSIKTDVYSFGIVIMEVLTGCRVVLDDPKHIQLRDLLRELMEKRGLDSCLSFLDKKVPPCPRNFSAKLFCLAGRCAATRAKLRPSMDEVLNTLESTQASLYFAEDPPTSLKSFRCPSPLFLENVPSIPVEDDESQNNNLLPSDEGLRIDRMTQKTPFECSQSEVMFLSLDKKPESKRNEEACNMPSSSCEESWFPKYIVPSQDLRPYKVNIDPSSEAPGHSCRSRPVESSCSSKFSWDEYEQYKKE
Put plainly: Selectivity interaction (KinomeScan (DiscoverX)) EUB0000229b IRAK3. Conditions: at 10 µM.

Experiment [6] addresses T4, Testis-specific serine/threonine-protein kinase 1 (Homo sapiens) (UniProt Q9BXA7).
T4 sequence (whole entry): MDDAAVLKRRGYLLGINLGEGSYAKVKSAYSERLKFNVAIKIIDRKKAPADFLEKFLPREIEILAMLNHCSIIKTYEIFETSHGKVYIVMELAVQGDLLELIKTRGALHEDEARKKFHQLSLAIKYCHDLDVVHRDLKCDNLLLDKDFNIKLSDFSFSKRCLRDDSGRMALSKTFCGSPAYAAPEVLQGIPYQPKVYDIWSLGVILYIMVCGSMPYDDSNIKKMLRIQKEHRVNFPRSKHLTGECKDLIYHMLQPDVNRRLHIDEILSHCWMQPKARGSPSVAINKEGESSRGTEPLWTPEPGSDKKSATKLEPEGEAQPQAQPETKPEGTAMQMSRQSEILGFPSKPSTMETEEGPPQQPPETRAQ
Nature of the experiment: Selectivity interaction (KinomeScan (DiscoverX)) EUB0000229b TSSK1B. Conditions: at 10 µM.

Experiment [7] addresses Serine/threonine-protein kinase SIK1 (Homo sapiens) (UniProt P57059). Nature of the experiment: Selectivity interaction (KinomeScan (DiscoverX)) EUB0001619a SIK1. Conditions: at 1 µM.

Sequence of Ribosomal protein S6 kinase alpha-3 (P51812 whole entry): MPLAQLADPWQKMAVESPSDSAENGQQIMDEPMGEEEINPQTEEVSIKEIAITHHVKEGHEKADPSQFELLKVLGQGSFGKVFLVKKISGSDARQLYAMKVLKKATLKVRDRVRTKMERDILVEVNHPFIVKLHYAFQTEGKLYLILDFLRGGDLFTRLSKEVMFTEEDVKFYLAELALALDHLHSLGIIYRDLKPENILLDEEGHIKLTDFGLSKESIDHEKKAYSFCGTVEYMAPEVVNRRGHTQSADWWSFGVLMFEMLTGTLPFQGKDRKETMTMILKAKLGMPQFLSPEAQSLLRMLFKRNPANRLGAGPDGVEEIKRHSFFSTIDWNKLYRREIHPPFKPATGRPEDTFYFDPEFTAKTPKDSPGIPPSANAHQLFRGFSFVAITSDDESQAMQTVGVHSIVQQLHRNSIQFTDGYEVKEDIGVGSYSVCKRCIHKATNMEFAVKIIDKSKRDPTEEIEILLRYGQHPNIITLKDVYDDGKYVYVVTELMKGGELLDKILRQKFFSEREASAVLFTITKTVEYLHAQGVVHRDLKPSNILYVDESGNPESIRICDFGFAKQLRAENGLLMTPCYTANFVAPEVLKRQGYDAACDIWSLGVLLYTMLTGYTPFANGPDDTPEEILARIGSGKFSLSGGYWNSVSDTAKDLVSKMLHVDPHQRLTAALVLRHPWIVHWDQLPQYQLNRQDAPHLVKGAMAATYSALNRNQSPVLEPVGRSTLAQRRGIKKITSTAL
Sequence of Serine/threonine-protein kinase SIK1 (Homo sapiens) (P57059 whole entry): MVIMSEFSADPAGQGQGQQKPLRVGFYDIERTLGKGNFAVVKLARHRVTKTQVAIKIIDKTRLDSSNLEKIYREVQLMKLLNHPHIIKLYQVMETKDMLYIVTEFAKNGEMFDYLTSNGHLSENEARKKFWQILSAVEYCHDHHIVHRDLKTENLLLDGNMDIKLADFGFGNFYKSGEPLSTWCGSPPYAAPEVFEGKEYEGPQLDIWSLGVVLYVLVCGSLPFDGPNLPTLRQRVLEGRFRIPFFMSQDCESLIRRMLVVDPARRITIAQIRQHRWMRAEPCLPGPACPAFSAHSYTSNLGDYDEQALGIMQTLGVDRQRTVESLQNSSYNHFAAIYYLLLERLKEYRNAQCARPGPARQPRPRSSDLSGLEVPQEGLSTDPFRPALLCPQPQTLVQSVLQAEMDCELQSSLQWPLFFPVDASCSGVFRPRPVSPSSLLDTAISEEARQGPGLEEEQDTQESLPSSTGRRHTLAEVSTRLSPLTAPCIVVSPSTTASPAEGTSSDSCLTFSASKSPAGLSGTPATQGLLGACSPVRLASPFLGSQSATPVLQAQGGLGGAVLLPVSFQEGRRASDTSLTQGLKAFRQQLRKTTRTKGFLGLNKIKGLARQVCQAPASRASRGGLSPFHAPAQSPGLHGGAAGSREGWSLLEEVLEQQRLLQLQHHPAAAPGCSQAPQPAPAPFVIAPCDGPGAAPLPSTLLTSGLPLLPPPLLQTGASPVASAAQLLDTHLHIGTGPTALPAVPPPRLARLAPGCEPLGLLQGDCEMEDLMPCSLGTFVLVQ
Sequence of Receptor-interacting serine/threonine-protein kinase 2 (O43353 whole entry): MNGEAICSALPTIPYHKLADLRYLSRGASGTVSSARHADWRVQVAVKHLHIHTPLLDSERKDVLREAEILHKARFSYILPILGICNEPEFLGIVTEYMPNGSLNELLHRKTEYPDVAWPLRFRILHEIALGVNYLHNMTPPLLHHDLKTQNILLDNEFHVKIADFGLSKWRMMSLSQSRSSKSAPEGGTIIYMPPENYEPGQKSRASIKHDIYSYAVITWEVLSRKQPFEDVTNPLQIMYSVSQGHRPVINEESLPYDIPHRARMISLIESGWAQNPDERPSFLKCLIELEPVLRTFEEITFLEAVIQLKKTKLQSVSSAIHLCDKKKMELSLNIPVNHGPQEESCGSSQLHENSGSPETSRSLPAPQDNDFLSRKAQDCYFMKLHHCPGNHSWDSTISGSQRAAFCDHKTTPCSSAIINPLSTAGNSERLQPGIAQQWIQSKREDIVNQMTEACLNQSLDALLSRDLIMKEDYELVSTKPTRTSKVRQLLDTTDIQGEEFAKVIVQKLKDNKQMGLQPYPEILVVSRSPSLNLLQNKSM

`Cc1cc([C@@H](C)Nc2ccccc2C(=O)O)c2nc(N3CCOCC3)cc(=O)n2c1` [AZD-6482] gave a % of control in experiment [1] of 94%. `COc1cc(Nc2nc(C)cc(-c3cnn4nc(OC)ccc34)n2)cc(C(F)(F)F)c1`: the % of control in experiment [2] came to 98%. As for `CC[C@@H]1[C@H](F)C(=O)N[C@@H]1COc1nccc2cc(C(N)=O)c(OC)cc12` [ZIMLOVISERTIB], the figures for the % of inhibition in experiment [3] and in experiment [4] were -6.6% and 5.6%, respectively.

Consider `COc1cc(N(C)c2ccnc3ccc(C(F)(F)F)cc23)cc(OC)c1OC`, for which the values for the % binding in experiment [5] and in experiment [6] were 0% and 91%, respectively.

`N#Cc1cccc(-c2c[nH]c3ncnc(N4CCOCC4)c23)c1` had a % of control in experiment [7] of 84%.
